Tests used:
[1] = biological target: cGMP-specific 3',5'-cyclic phosphodiesterase (Homo sapiens, UniProt O76074); assay: Inhibition of PDE5 (unknown origin)
[2] = test system: Aorta; assay: Vasodilatory activity in phenylephrine-induced pre-contracted Wistar rat aortic ring assessed as relaxation at 10 '-4 M; assay type: functional; design: scale not given: the % may be the effect or the level left
[3] = test system: Aorta; assay: Vasodilatory activity in phenylephrine-induced pre-contracted Wistar rat aortic ring assessed as relaxation at 10 '-2 M; assay type: functional; design: scale not given: the % may be the effect or the level left
[4] = test system: Aorta; assay: Vasodilatory activity in phenylephrine-induced pre-contracted Wistar rat aortic ring assessed as relaxation at 10 '-5 M; assay type: functional; design: scale not given: the % may be the effect or the level left
[5] = test system: Aorta; assay: Vasodilatory activity in phenylephrine-induced pre-contracted Wistar rat aortic ring assessed as relaxation at 10 '-6 M; assay type: functional; design: scale not given: the % may be the effect or the level left

SMILES	IC50 [1]	also measured
CN1C(=O)c2[nH]c(Cc3ccc(-c4ccccc4)cc3)nc2N2C1=N[C@@H]1CCC[C@@H]12	66 nM	–
CCCc1nc2c([nH]1)N1C(=N[C@@H]3CCC[C@@H]31)N(C)C2=O	800 nM	–
CN1C(=O)c2c(nc(CC3CCCC3)n2Cc2ccccc2)N2CC3(CCCC3)N=C12	120 nM	–
CN1C(=O)c2c(nc(C#Cc3ccccc3)n2Cc2ccccc2)N2C1=N[C@@H]1CCC[C@@H]12	4 nM	–
CN1C(=O)c2[nH]c(C#Cc3ccccc3)nc2N2C1=N[C@@H]1CCC[C@@H]12	6000 nM	–
CN1C(=O)c2c(nc(Cc3ccccc3)n2Cc2ccccc2)N2C1=N[C@@H]1CCC[C@@H]12	180 nM	–
CN1C(=O)c2[nH]c(Cc3ccccc3)nc2N2CC3(CCCC3)N=C12	19 nM	–
CN1C(=O)c2c(nc(Cc3ncc[nH]3)n2Cc2ccccc2)N2C1=N[C@@H]1CCC[C@@H]12	1500 nM	–
Cc1nc2c(n1Cc1ccccc1)N1CC3(CCCC3)N=C1N(C)C2=O	2900 nM	–
CN1C(=O)c2c(nc(CC3CCCC3)n2Cc2ccccc2)N2C1=N[C@@H]1CCC[C@@H]12	275 nM	–
CN1C(=O)c2c(nc(Cc3ccc(-c4ccccc4)cc3)n2Cc2ccccc2)N2C1=N[C@@H]1CCC[C@@H]12	305 nM	–
CC(CC/N=C/c1ccccc1O)/N=C/c1ccccc1O (centres undefined)	–	Activity [2]: 50%
CCCCCCc1nc2c([nH]1)C(=O)N(C)C1=N[C@@H]3CCC[C@@H]3N12	10 nM	–
CN1C(=O)c2[nH]c(CC3CCCC3)nc2N2CC3(CCCC3)N=C12	26 nM	–
CCOC(=O)c1cnc2nc(N)ccc2c1O	–	Activity [3]: 50%; Activity [4]: 50%
CN1C(=O)c2[nH]c(C(F)(F)F)nc2N2C1=N[C@@H]1CCC[C@@H]12	6200 nM	–
CN1C(=O)c2[nH]c(-c3ccccc3)nc2N2CC3(CCCC3)N=C12	3300 nM	–
CN1C(=O)c2c(nc(Cc3ccccc3)n2CC2CCCCC2)N2C1=N[C@@H]1CCC[C@@H]12	110 nM	–
CCCc1nn(C)c2c(=O)[nH]c(-c3cc(S(=O)(=O)N4CCN(C)CC4)ccc3OCC)nc12	–	Activity [3]: 50%; Activity [4]: 50%
CN1C(=O)c2c(nc(Cc3ccccc3)n2Cc2ncc[nH]2)N2C1=N[C@@H]1CCC[C@@H]12	4000 nM	–
Cc1nc2c(n1Cc1ccccc1)C(=O)N(C)C1=N[C@@H]3CCC[C@@H]3N12	225 nM	–
CN1C(=O)c2c(nc(CN3CCCC3)n2Cc2ccccc2)N2C1=N[C@@H]1CCC[C@@H]12	1200 nM	–
CN1C(=O)c2[nH]c(CC3CCCC3)nc2N2C1=N[C@@H]1CCC[C@@H]12	34 nM	–
CC(C)CCc1nc2c(n1Cc1ccccc1)C(=O)N(C)C1=N[C@@H]3CCC[C@@H]3N12	560 nM	–
Cc1nc2c([nH]1)C(=O)N(C(C)C)C1=N[C@@H]3CCC[C@@H]3N12	240 nM	–

SMILES	IC50 [1]	also measured
CN1C(=O)c2c(nc(Cc3ccccc3)n2Cc2ccccc2)N2CC3(CCCC3)N=C12	120 nM	–
CCCc1nc2c(n1Cc1ccccc1)C(=O)N(C)C1=N[C@@H]3CCC[C@@H]3N12	510 nM	–
CCN1C(=O)c2[nH]c(C)nc2N2C1=N[C@@H]1CCC[C@@H]12	100 nM	–
CN1C(=O)c2c(nc(CC3CC3)n2Cc2ccccc2)N2C1=N[C@@H]1CCC[C@@H]12	420 nM	–
CN1C(=O)c2[nH]c(CN3CCCC3)nc2N2C1=N[C@@H]1CCC[C@@H]12	16000 nM	–
COCc1nc2c([nH]1)N1C(=N[C@@H]3CCC[C@@H]31)N(C)C2=O	13000 nM	–
CN1C(=O)c2c(nc(-c3ccccc3)n2Cc2ccccc2)N2CC3(CCCC3)N=C12	11 nM	–
CCCCC(=O)c1cc(OC)cc(OC)c1	–	Activity [3]: 50%; Activity [4]: 50%; Activity [5]: 50%; Activity [2]: 50%
COCc1nc2c(n1Cc1ccccc1)C(=O)N(C)C1=N[C@@H]3CCC[C@@H]3N12	1000 nM	–
CN1C(=O)c2[nH]c(CC3CCCCC3)nc2N2C1=N[C@@H]1CCC[C@@H]12	19 nM	–
CN1C(=O)c2c(nc(C(F)(F)F)n2Cc2ccccc2)N2C1=N[C@@H]1CCC[C@@H]12	400 nM	–
CCCCCCc1nc2c(n1Cc1ccccc1)C(=O)N(C)C1=N[C@@H]3CCC[C@@H]3N12	800 nM	–
CN1C(=O)c2c(nc(Cc3ccccc3)n2Cc2cccnc2)N2C1=N[C@@H]1CCC[C@@H]12	4300 nM	–
CN1C(=O)c2c(nc(Cc3ccccc3)n2C)N2CC3(CCCC3)N=C12	4500 nM	–
CN1C(=O)c2[nH]c(Cc3ccc(-c4ccccc4)cc3)nc2N2CC3(CCCC3)N=C12	43 nM	–
CN1C(=O)c2c(nc(Cc3ccccc3)n2Cc2cccc(O)c2O)N2C1=N[C@@H]1CCC[C@@H]12	200 nM	–
CN1C(=O)c2[nH]c(Cc3ncc[nH]3)nc2N2C1=N[C@@H]1CCC[C@@H]12	26000 nM	–
Cc1nc2c([nH]1)C(=O)N(C)C1=N[C@@H]3CCC[C@@H]3N12	2400 nM	–
CN(C)Cc1nc2c(n1Cc1ccccc1)C(=O)N(C)C1=N[C@@H]3CCC[C@@H]3N12	5600 nM	–
CN1C(=O)c2c(nc(CC3CCCCC3)n2Cc2ccccc2)N2C1=N[C@@H]1CCC[C@@H]12	590 nM	–
CN1C(=O)c2c(nc(Cc3ccc(-c4ccccc4)cc3)n2Cc2ccccc2)N2CC3(CCCC3)N=C12	200 nM	–
CN1C(=O)c2c(nc(Cc3ccccc3)n2CCO)N2C1=N[C@@H]1CCC[C@@H]12	10000 nM	–
CC(C)CCc1nc2c([nH]1)C(=O)N(C)C1=N[C@@H]3CCC[C@@H]3N12	50 nM	–
CN1C(=O)c2[nH]c(CC3CC3)nc2N2C1=N[C@@H]1CCC[C@@H]12	610 nM	–

From ChEMBL document CHEMBL3297680, “Pharmacophore based virtual screening, molecular docking and biological evaluation to identify novel PDE5 inhibitors with vasodilatory activity” (Bioorg Med Chem Lett, 2014)
